These results are taken from ChEMBL document CHEMBL2074209, “Coinduction of MDR-1 multidrug-resistance and cytochrome P-450 genes in rat liver by xenobiotics” (J Natl Cancer Inst, 1988).

For this test, the target named is Multidrug resistance protein 1a (Rattus norvegicus) (UniProt Q6PSM0). The experiment in a line: TP_TRANSPORTER: Northern blot in vivo Fischer male rat. The class given is functional, organism-based.
Chain of Multidrug resistance protein 1a (Rattus norvegicus) (Q6PSM0 as listed by the source): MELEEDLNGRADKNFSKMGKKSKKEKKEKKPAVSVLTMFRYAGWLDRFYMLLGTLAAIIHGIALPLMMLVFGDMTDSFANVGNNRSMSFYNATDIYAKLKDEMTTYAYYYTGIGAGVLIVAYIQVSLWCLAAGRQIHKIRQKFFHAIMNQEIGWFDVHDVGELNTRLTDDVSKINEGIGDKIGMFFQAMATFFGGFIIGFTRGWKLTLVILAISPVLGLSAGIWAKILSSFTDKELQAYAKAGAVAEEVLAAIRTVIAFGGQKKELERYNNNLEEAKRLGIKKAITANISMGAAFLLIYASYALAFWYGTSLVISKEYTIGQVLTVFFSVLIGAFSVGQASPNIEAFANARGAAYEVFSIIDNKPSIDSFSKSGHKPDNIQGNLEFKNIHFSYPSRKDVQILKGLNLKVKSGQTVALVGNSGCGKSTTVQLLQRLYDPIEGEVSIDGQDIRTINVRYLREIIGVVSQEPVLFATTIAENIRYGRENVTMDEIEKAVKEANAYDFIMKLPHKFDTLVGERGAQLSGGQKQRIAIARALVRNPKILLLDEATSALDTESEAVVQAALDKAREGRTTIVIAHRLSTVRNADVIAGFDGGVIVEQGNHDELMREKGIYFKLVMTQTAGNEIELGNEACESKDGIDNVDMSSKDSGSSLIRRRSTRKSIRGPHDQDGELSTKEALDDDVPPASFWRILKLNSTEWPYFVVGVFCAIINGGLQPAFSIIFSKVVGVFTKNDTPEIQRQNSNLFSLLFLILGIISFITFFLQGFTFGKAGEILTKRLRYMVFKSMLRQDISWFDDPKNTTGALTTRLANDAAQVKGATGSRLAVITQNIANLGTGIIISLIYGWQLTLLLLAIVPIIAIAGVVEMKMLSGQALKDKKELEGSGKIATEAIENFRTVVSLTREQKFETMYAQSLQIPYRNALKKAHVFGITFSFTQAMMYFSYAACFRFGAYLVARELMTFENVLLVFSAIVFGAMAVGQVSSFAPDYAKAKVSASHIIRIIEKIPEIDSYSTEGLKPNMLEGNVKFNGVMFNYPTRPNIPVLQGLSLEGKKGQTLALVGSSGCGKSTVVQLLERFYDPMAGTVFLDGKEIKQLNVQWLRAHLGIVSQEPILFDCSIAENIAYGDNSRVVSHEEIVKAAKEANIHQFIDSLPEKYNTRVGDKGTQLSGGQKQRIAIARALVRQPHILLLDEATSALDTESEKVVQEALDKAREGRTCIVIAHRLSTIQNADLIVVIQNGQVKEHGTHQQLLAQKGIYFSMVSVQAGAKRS
In the case of `COc1cc2c(c3oc(=O)c4c(c13)CCC4=O)[C@@H]1C=CO[C@@H]1O2`, the Activity result was “inducer [+]”.

Turning to `C/C=C/c1ccc2c(c1)OCO2`, the Activity result was “inducer [+]”.

In the case of `Clc1cc2c(cc1Cl)Oc1cc(Cl)c(Cl)cc1O2`, the Activity entry is “inducer [+]”.

As to `CC(=O)N(O)c1ccc2c(c1)Cc1ccccc1-2`, the Activity entry is “inducer [+]”.

In the case of `c1ccc2c(c1)Nc1ccccc1S2`, the Activity result is “inducer [+]”.
